Legend:
Type in all cases: in vivo
[1] = system: winter wheat (Triticum aestivum L; TRZAW); assay: Postemergence herbicidal safening in cereal crops, greenhouse, visual injury: winter wheat; settings: herbicide alone 8.75 g/ha; 20-22 d
Description: (§1) Evaluation of Postemergence Herbicidal Safening in Cereal Crops
(§2) Seeds of the desired test plant species were planted in Sun Gro MetroMix® 306 planting mixture, which typically has a pH of 6.0 to 6.8 and an organic matter content of about 30 percent, in plastic pots with a surface area of 103.2 square centimeters (cm^2). When required to ensure good germination and healthy plants, a fungicide treatment and/or other chemical or physical treatment was applied. The plants were grown for 7-36 days (d) in a greenhouse with an approximate 14-hour (h) photoperiod which was maintained at about 18° C. during the day and 17° C. during the night. Nutrients and water were added on a regular basis and supplemental lighting was provided with overhead metal halide 1000-Watt lamps as necessary. The plants were employed for testing when they reached the second or third true leaf stage.
(§3) Treatments consisted of the acids or esters of compounds 1-10 and cloquintocet-mexyl (CQC-M), fenchlorazole-ethyl, mefenpyr-diethyl alone and in combination. Weighed amounts of acid or methyl esters of the compounds of formula (I) were dissolved in a volume of 97:3 v/v acetone/dimethylsulfoxide (DMSO) to obtain concentrated solutions. […] The concentrated solutions of the test compound were diluted with the addition of an aqueous mixture containing acetone, water, isopropyl alcohol, DMSO, Agri-Dex crop oil concentrate, and Triton® X-77 surfactant in a 64.7:26.0:6.7:2.0:0.7:0.01 v/v ratio. Test compounds were diluted to the appropriate application rate with a dilution solution which was prepared by mixing the appropriate volume of 97:3 v/v acetone/DMSO and the appropriate volume of an aqueous mixture containing acetone, water, isopropyl alcohol, DMSO, Agri-Dex crop oil concentrate, and Triton® X-77 surfactant in a 64.7:26.0:6.7:2.0:0.7:0.01 v/v ratio. Compound requirements are based upon a 12 mL application volume at a rate of 187 liters per hectare (L/ha). The concentrated solutions of the safener were prepared following the same procedure. Weighed amounts of safener were dissolved in a volume of 97:3 v/v acetone/DMSO to obtain concentrated safener solutions.
(§4) Spray solutions of the herbicide safener and test compound mixtures were prepared by adding the concentrated solutions to the appropriate amount of dilution solution to form 12 mL spray solution with active ingredients in combinations.
(§5) Formulated compounds were applied to the plant material with an overhead Mandel track sprayer equipped with 8002E nozzles calibrated to deliver 187 L/ha over an application area of 0.503 square meters (m^2) at a spray height of 18 inches (43 centimeters (cm)) above average plant canopy. Control plants were sprayed in the same manner with the solvent blank.
(§6) The treated plants and control plants were placed in a greenhouse as described above and watered by sub-irrigation to prevent wash-off of the test compounds. After 20-22 d, the condition of the test plants as compared with that of the control plants was determined visually and scored on a scale of 0 to 100 percent where 0 corresponds to no injury and 100 corresponds to complete kill.
(§7) Colby's equation was used to determine the herbicidal effects expected from the mixtures (Colby, S. R. Calculation of the synergistic and antagonistic response of herbicide combinations. Weeds 1967, 15, 20-22.).
(§8) The following equation was used to calculate the expected activity of mixtures containing two active ingredients, A and B: Expected=A+B−(A×B/100)
(§9) A=observed efficacy of active ingredient A at the same concentration as used in the mixture.
(§10) B=observed efficacy of active ingredient B at the same concentration as used in the mixture.

[2] = system: winter barley (Hordeum vulgare L; HORVW); assay: Postemergence herbicidal safening in cereal crops, greenhouse, visual injury: winter barley; settings: herbicide alone 8.75 g/ha; 20-22 d
Description: as §1, §2, §3, §4, §5, §6, §7, §8, §9, §10

[3] = system: spring barley (Hordeum vulgare L; HORVS); assay: Postemergence herbicidal safening in cereal crops, greenhouse, visual injury: spring barley; settings: Hordeum vulgare, post-emergence, 480 h, 20-22 d, read-out: HORVS Ob (visual injury); for pest or weed control at 8.75 g/ha: herbicide alone 8.75 g/ha; for pest or weed control at 35 g/ha: herbicide alone 35 g ae/ha; for pest or weed control at 70 g/ha: herbicide alone 70 g/ha; for pest or weed control at 140 g/ha: herbicide alone 140 g/ha
Description: as §1, §2, §3, §4, §5, §6, §7, §8, §9, §10

[4] = system: purple deadnettle (Lamium purpureum L; LAMPU); assay: Postemergence herbicidal activity, greenhouse, visual injury: purple deadnettle; settings: Lamium purpureum, post-emergence, 480 h, 20-22 d, read-out: LAMPU Ob (visual injury); for pest or weed control at 35 g/ha: herbicide alone 35 g ae/ha; for pest or weed control at 70 g/ha: herbicide alone 70 g/ha; for pest or weed control at 140 g/ha: herbicide alone 140 g/ha
Description: as §1, §2, §3, §4, §5, §6, §7, §8, §9, §10

[5] = system: durum wheat (Triticum durum L; TRZDU); assay: Postemergence herbicidal safening in cereal crops, greenhouse, visual injury: durum wheat; settings: herbicide alone 8.75 g/ha; 20-22 d
Description: as §1, §2, §3, §4, §5, §6, §7, §8, §9, §10

[6] = system: spring wheat (Triticum aestivum L; TRZAS); assay: Postemergence herbicidal safening in cereal crops, greenhouse, visual injury: spring wheat; settings: Triticum aestivum, post-emergence, 480 h, 20-22 d, read-out: TRZAS Ob (visual injury); for pest or weed control at 8.75 g/ha: herbicide alone 8.75 g/ha; for pest or weed control at 35 g/ha: herbicide alone 35 g ae/ha; for pest or weed control at 70 g/ha: herbicide alone 70 g/ha; for pest or weed control at 140 g/ha: herbicide alone 140 g/ha
Description: as §1, §2, §3, §4, §5, §6, §7, §8, §9, §10

[7] = system: kochia (Kochia scoparia L; KCHSC); assay: Postemergence herbicidal activity, greenhouse, visual injury: kochia; settings: 20-22 d
Description: as §1, §2, §3, §4, §5, §6, §7, §8, §9, §10

[8] = system: corn poppy (Papaver rhoeas L; PAPRH); assay: Postemergence herbicidal activity, greenhouse, visual injury: corn poppy; settings: 20-22 d
Description: as §1, §2, §3, §4, §5, §6, §7, §8, §9, §10

CIRAR = assay: Postemergence herbicidal activity, greenhouse, visual injury: CIRAR; settings: 20-22 d
Description: as §1, §2, §3, §4, §5, §6, §7, §8, §9, §10

[9] = system: bird's-eye speedwell (Veronica persica L; VERPE); assay: Postemergence herbicidal activity, greenhouse, visual injury: bird's-eye speedwell; settings: herbicide alone 8.75 g/ha; 20-22 d
Description: as §1, §2, §3, §4, §5, §6, §7, §8, §9, §10

MATCH = assay: Postemergence herbicidal activity, greenhouse, visual injury: MATCH; settings: 20-22 d
Description: as §1, §2, §3, §4, §5, §6, §7, §8, §9, §10

SASKR = assay: Postemergence herbicidal activity, greenhouse, visual injury: SASKR; settings: 20-22 d
Description: as §1, §2, §3, §4, §5, §6, §7, §8, §9, §10

Structure (SMILES)	TRZAW Ob (visual injury) [1]	HORVW Ob (visual injury) [2]	pest or weed control at 8.75 g/ha [3]	pest or weed control at 35 g/ha [3]	pest or weed control at 35 g/ha [4]	TRZDU Ob (visual injury) [5]	pest or weed control at 8.75 g/ha [6]	pest or weed control at 35 g/ha [6]	KCHSC Ob (visual injury) ([7]; herbicide alone 70 g/ha)	KCHSC Ob (visual injury) ([7]; herbicide alone 140 g/ha)	pest or weed control at 70 g/ha [3]	pest or weed control at 140 g/ha [3]	pest or weed control at 70 g/ha [4]	pest or weed control at 140 g/ha [4]	pest or weed control at 70 g/ha [6]	pest or weed control at 140 g/ha [6]	PAPRH Ob (visual injury) ([8]; herbicide alone 70 g/ha)	PAPRH Ob (visual injury) ([8]; herbicide alone 140 g/ha)	CIRAR Ob (visual injury) (CIRAR; herbicide alone 70 g/ha)	CIRAR Ob (visual injury) (CIRAR; herbicide alone 140 g/ha)	also measured
COC(=O)c1nc(-c2ccc(Cl)c(OC)c2F)nc(N)c1OC [Compound 4, 6-amino-2-(4-chloro-2-fluoro-3-methoxyphenyl)-5-methoxypyrimidine-4-carboxylic acid methyl ester]	22%	7%	25%	75%	100%	18%	33%	80%	–	–	–	–	–	–	–	–	–	–	–	–	–
COc1c(N)nc(-c2ccc(Cl)c(OC)c2F)nc1C(=O)O [Compound 8, 6-amino-2-(4-chloro-2-fluoro-3-methoxyphenyl)-5-methoxypyrimidine-4-carboxylic acid]	–	–	–	75%	100%	–	–	83%	90%	100%	50%	85%	100%	100%	90%	95%	100%	100%	–	–	–
C=Cc1c(N)nc(-c2ccc(Cl)c(OC)c2F)nc1C(=O)OC [Compound 5, 6-amino-2-(4-chloro-2-fluoro-3-methoxyphenyl)-5-vinylpyrimidine-4-carboxylic acid methyl ester]	–	–	–	10%	75%	–	–	25%	–	–	8%	0%	95%	95%	18%	40%	89%	90%	84%	85%	–
C=Cc1c(N)nc(-c2ccc(Cl)c(OC)c2F)nc1C(=O)O [Compound 2, 6-amino-2-(4-chloro-2-fluoro-3-methoxyphenyl)-5-vinylpyrimidine-4-carboxylic acid]	43%	18%	24%	68%	77%	30%	41%	80%	–	–	–	–	–	–	–	–	–	–	–	–	KCHSC Ob (visual injury) ([7]; herbicide alone 8.75 g/ha): 40%; VERPE Ob (visual injury) [9]: 70%; PAPRH Ob (visual injury) ([8]; herbicide alone 8.75 g/ha): 80%
COc1c(N)nc(-c2ccc(Cl)c(F)c2)nc1C(=O)O [Compound 9, 6-amino-2-(4-chloro-3-fluorophenyl)-5-methoxypyrimidine-4-carboxylic acid]	–	–	–	–	–	–	–	–	100%	100%	50%	70%	95%	100%	60%	70%	–	–	–	–	MATCH Ob (visual injury) (MATCH; herbicide alone 70 g/ha): 93%; MATCH Ob (visual injury) (MATCH; herbicide alone 140 g/ha): 97%
C=Cc1c(N)nc(-c2ccc(Cl)c(N(C)C)c2F)nc1C(=O)O [Compound 7, 6-amino-2-(4-chloro-3-dimethylamino-2-fluorophenyl)-5-vinylpyrimidine-4-carboxylic acid]	–	–	–	70%	52%	–	–	75%	65%	75%	30%	45%	–	–	60%	70%	–	–	80%	85%	SASKR Ob (visual injury) (SASKR; herbicide alone 70 g/ha): 75%; SASKR Ob (visual injury) (SASKR; herbicide alone 140 g/ha): 80%

Reference: patent publication US9408387B2, “Safening 6-amino-2-(substituted phenyl)-5-substituted-4-pyrimidinecarboxylate herbicide injury on cereal crops” (Dow AgroSciences LLC, priority 2009, dated 2016)
